Experimental data reported in patent CN106420773A, “一种治疗放射性肠炎的中西药组合物及其制备方法和应用” (Zhengzhou Lidiya Medicine Technology Co Ltd, priority 2016, dated 2017).

Experiment: Clinical trial in patients receiving pelvic radiotherapy (radiation enteritis)
Type: in vivo, human
Conditions: once daily, 10 days, with conventional radiotherapy
[1] = number of patients of 50 per group

SMILES: CC(O)C(=O)[O-].CC(O)C(=O)[O-].[Ca+2] (stereo not shown) [对比例2, 乳酸钙]
- total effective rate (50 patients per group): 4%
- cured [1]: 0
- improved [1]: 2
- ineffective [1]: 48
